Marks after values point to notes of the source that are not given here.

The nature of data set [1]: Urinary kidney toxicity markers KIM-1 and NGAL by ELISA after a single IV dose of peptide-PMO conjugate. The conditions noted are these: 25 mg/kg single IV dose, C57/BL10 female mice. The format is in vivo. As for the experimental part: Urinary and serum markers of kidney and liver toxicity were measured following a single dose administration of saline or the relevant peptide-PMO conjugate to 8 week old adult C57/BL10 female mice (N=6 per group). A bolus IV (tail vein) injection was administered and urine collected Day 2 and Day 7 after administration. Animals were then scarified prior to necropsy in which kidney, liver, diaphragm, heart, TA, gastric and serum were collected. Urine clinical indicators: KIM-1, NGAL were measured by ELISA (R&D cat #MKM100) with samples diluted to fit within standard curve. Values were normalised to urinary creatinine levels (Harwell) to account for urine protein concentration.
Group 2—25 mg/kg Pip8b4-PMO SMN
Group 3—25 mg/kg DPEP5.17-PMO SMN

In the next data set the test system is human SMN2-gene. Briefly: Full-length SMN2 transcript qPCR in tissues of adult SMA mice after intravenous peptide-PMO conjugate. Type of data set: in vivo. An excerpt: Smn1tm1Hung/wt; […]; […] Tissues were harvested one week post administration. […] Statistical significance determined by Student'[…]≤0.00005. […] ID NO.151), Exons 7-8 Rev: [NT] ID NO.152). […] [NT] ID NO.154). […] PolJ Forward: [NT] ID NO.155); PolJ Reverse: [NT]

In data set [2] the test system is SMN2 exon 7 inclusion in GM03813 SMA patient fibroblasts. The data set can be described thus: Cell screening of peptide-PMO conjugates for SMN2 exon 7 inclusion in human SMA patient fibroblast cell culture. The conditions noted are these: 667 nM and 2 μM; for cell activity (SMN2 exon 7 inclusion): second screen, FIG. 5, qPCR; for cell activity (SMN2 exon 7 inclusion) relative to peptide 14: first screen, FIG. 4, qPCR. The format is cell-based. The protocol: In order to generate further peptide candidates containing a glycosylated Serine residue for in vivo evaluation, the inventors synthesized a range of similarly glycosylated peptides, conjugated them to the same PMO therapeutic and screened the resultant P-PMO conjugates in human SMA patient fibroblast cell culture, which assesses their ability to enter cell nuclei to give exon inclusion.
GM03813 (Coriell Institute) derived from SMA type I patient fibroblast were seeded out at 2500 cells/well in 100 μl Dulbecco's modified Eagle's medium (DMEM) with GlutaMAX and 5% fetal bovine serum (FBS) (Life Technologies, Inc.) in 96 well plates, and incubated for 16 h in a cell culture incubator (37° C., 5% CO2, 100% rel. humidity). On the next day cells were then treated with 10 μl P-PMO at different concentrations (in water) in duplicate for 24 hours. After removal of the supernatant, cells were washed once with PBS-buffer and were lysed in lysis buffer (10 mM Tris, 3 mM MgCl2, 1 mM CaCl2), 1% Triton X-100, 200 u/ml DNase I and 200 u/ml Proteinase K) for 10 min. Afterwards the lysate were transferred into a 96-well plate (Eppendorf twintec) and incubated at 75° C. for 15 min and subsequently cooled to 4° C. and used immediately. The mRNA levels of SMN2 FL, SMN2 Δ7 and GAPDH were quantified using Taqman-based qRT-PCR (Superscript® III Platinium® One Step qRT-PCR, Thermo Fisher) and SMN2 specific Primers and probes (purchased from IDT Integrated DNA Technologies). (19) SMN2 FL and Δ7 mRNAs were normalized to GAPDH. […]

The mark [3] stands for this setting: adult SMA mice, 2x15 mg/kg IV approx. 48 hours apart, tissue 7 days post final administration, normalised to saline treated controls, Central Nervous System.
[4] abbreviates: adult SMA mice, 2x15 mg/kg IV approx. 48 hours apart, tissue 7 days post final administration, normalised to saline treated controls, spinal cord.

Consider Ac-RXRRBRR FS*RBRXR-B [Peptide 17], for which the “urinary KIM-1 level normalised to creatinine, compared with peptide 6” value in data set [1] (2 days after administration) is on record as “far lower”. In addition, in data set [1] (7 days post administration), the “urinary KIM-1 level normalised to creatinine, compared with peptide 6” value is “lower” and the “urinary NGAL level normalised to creatinine, compared with peptide 6” value was “lower”. Also, in the data set on human SMN2-gene (FIG. 7, 2x15 mg/kg IV 48 hours apart, adult intermediate SMA mice), the “activity in cerebellum and cortex compared with peptide 6” value is given as “equivalent or improved activity”. In the data set on human SMN2-gene (FIG. 7, 2x15 mg/kg IV 48 hours apart, adult intermediate SMA mice, central spinal cord, peripheral skeletal muscle and liver), the “level of full length transcript (FLSMN) in all tissues” value is over 1 fold. For the same substance, the “cell penetration in several compartments of the central nervous system and the skeletal muscle compared with currently available peptides 1-7” value with human SMN2-gene (Table 3 data) is reported as “increased”. In addition, in the data set with human SMN2-gene (setting [3]), the “full-length SMN2 transcripts, mean expression level, Brainstem” value is given as 1.2; the “full-length SMN2 transcripts, mean expression level, Cerebellum” value was 1.19*; the “full-length SMN2 transcripts, mean expression level, Cortex” value is 1.27*. Also, in the data set on human SMN2-gene (adult SMA mice, 2x15 mg/kg IV approx. 48 hours apart, tissue 7 days post final administration, normalised to saline treated controls, Off Target), the “full-length SMN2 transcripts, mean expression level, Liver” value is 3.78. Moreover, the “full-length SMN2 transcripts, mean expression level, Gastroc” value in the data set on human SMN2-gene (adult SMA mice, 2x15 mg/kg IV approx. 48 hours apart, tissue 7 days post final administration, normalised to saline treated controls, Skeletal Muscle (gastrocnemius)) was 3.25****. Also, the “full-length SMN2 transcripts, mean expression level, Quad” value with human SMN2-gene (adult SMA mice, 2x15 mg/kg IV approx. 48 hours apart, tissue 7 days post final administration, normalised to saline treated controls, Skeletal Muscle (quadriceps)) is recorded as 2.68***. In addition, the “full-length SMN2 transcripts, mean expression level, TA” value with human SMN2-gene (adult SMA mice, 2x15 mg/kg IV approx. 48 hours apart, tissue 7 days post final administration, normalised to saline treated controls, Skeletal Muscle (tibialis anterior)) is listed as 3.00***. Further, in the data set with human SMN2-gene (setting [4]), the “full-length SMN2 transcripts, mean expression level, Cervical” value is 1.41*; the “full-length SMN2 transcripts, mean expression level, Lumbar” value is 1.1; the “full-length SMN2 transcripts, mean expression level, Thoracic” value is 1.39**. The “increase in cell penetration / exon inclusion compared with the currently available peptide conjugated to the same antisense oligonucleotide” value in the data set with human SMN2-gene (in vivo, Table 3 data, peptide 17 versus peptide 6, peptide 14 versus peptide 2) is on record as “up to 60.2%”.
Regarding Ac-RXRRS*RRBRBRXR-G [Peptide 58], the “cell activity (SMN2 exon 7 inclusion)” value in data set [2] is “no significant alteration in activity levels”.
As to Ac-RXRRBRRXRS*RXRBRXR-G [Peptide 44], the “cell activity (SMN2 exon 7 inclusion) relative to peptide 14” value in data set [2] was “no significant effect on cell activity”.
Regarding Ac-RXRRBRRS*S*RBRXR-G [Peptide 67], the “cell activity (SMN2 exon 7 inclusion)” value in data set [2] is recorded as “retained good activity in cells”.
In the case of Ac-RBRRBRRBRS*FLRBRRR-G [Peptide 34], the “cell activity (SMN2 exon 7 inclusion) relative to peptide 14” value in data set [2] is listed as “without a large loss in cell activity”.

Source of the values: patent US12583889B2, “Cell penetrating peptides” (Oxford University Innovation Limited, priority 2017, dated 2026).
